In patent US6706698B2, “α-Substituted β-aminoethyl phosphonate derivatives” (Ilex Products, Inc., priority 2000, dated 2004):

Assays:
apo (a) = apo (a) secretion in primary cultures of Cynomolgus hepatocytes (ELISA); format: cell-based, Cynomolgus monkey; settings: Macaca fascicularis, Hepatocyte, 6-24 hours, vs ethanol control, read-out: change in apo (a) secretion in culture medium, percentage of control
Description: The compounds of formula (I) were assayed for being able to effectively lower the production of apo (a) in primary cultures of Cynomolgus hepatocytes.
Hepatocytes were isolated from livers of male adult Cynomolgus monkeys by the two-step collagenase perfusion method according to C. Guguen-Guillouzo and A. Guillouzo “Methods for preparation of adult and fetal hepatocytes” p.1-12 in “Isolated and Cultured Hepatocytes”, les editions Inserm Paris and John Libbey Eurotext London (1986).
The viability of cells was determined by Trypan blue staining. The cells were then seeded at a density of 1.5-2.105 viable cells per 2 cm^2 in 24 well tissue culture plates in a volume of 500 μl per well of Williams E tissue culture medium containing 10% fetal calf serum. Cells were incubated for 6-24 hours at 37° C. in a CO2 incubator (5% CO2) in the presence of 20 μM of the test compounds dissolved in ethanol. Four wells were used for each compound. Nicotinic acid and steroid hormones were used as references to validate the assay system since they are known to decrease apo (a) in man. Control cells were incubated in the presence of ethanol only.
The amount of apo (a) secreted in culture medium was assayed directly by ELISA using a commercially available kit. Changes in apo (a) concentration in culture medium are given as the percentage of value measured for the control plates.

Structure (SMILES)	melting point	inhibition at 20 µM (apo (a))
CCOP(=O)(OCC)C(CNc1cccnc1)c1cc(OC)c(O)c(OC)c1 (stereo not shown)	152 to 154 °C	–
CCOP(=O)(OCC)C(CNc1nccs1)c1cc(C)c(O)c(OC)c1 (stereo not shown)	85 to 87 °C	–
COc1cc(C(CNc2cccnc2)P(=O)(OC(C)C)OC(C)C)cc(OC)c1O (stereo not drawn) [Compound 33, diisopropyl α-(3,5-dimethoxy-4-hydroxyphenyl)-β-[N-(3-pyridyl)-amino]-ethylphosphonate]	156 to 158 °C	19 to 55%
COc1cc(C(CNc2cccnc2)P(=O)(OC(C)C)OC(C)C)cc(C)c1O (stereo not drawn) [Compound 35, diisopropyl α-(4-hydroxy-3-methoxy-5-methylphenyl)-β-[N-(3-pyridyl)amino]-ethylphosphonate]	–	19 to 55%
CCOP(=O)(OCC)C(CNc1cnccn1)c1cc(OC)c(O)c(OC)c1 (stereo not drawn) [Compound 42, diethyl α-(3,5-dimethoxy-4-hydroxyphenyl)-β-[N-(pyrazinyl)-amino]-ethylphosphonate]	147 to 148 °C	19 to 55%
COc1cc(C(CNc2cnccn2)P(=O)(OC(C)C)OC(C)C)cc(OC)c1O (stereo not drawn) [Compound 43, diisopropyl α-(3,5-dimethoxy-4-hydroxyphenyl)-β-[N-(pyrazinyl)-amino]-ethylphosphonate]	169 to 171 °C	19 to 55%
CCOP(=O)(OCC)C(CNc1cnccn1)c1cc(C)c(O)c(OC)c1 (stereo not drawn) [Compound 44, diethyl α-(4-hydroxy-3-methoxy-5-methylphenyl)-β-[N-(pyrazinyl)-amino]-ethylphosphonate]	–	19 to 55%
Cc1cc(C(CNc2cccnc2)P(=O)(OC(C)C)OC(C)C)cc(C)c1O (stereo not drawn) [Compound 47, diisopropyl α-(3,5-dimethyl-4-hydroxyphenyl)-β-[N-(3-pyridyl)-amino]-ethylphosphonate]	–	19 to 55%
CCOP(=O)(OCC)C(CNc1ncccn1)c1cc(C)c(O)c(OC)c1 (stereo not drawn) [Compound 53, diethyl α-(4-hydroxy-3-methoxy-5-methylphenyl)-β-[N-(2-pyrimidinyl)-amino]-ethylphosphonate]	133 to 136 °C	19 to 55%
CCOc1cc(C(CNc2cccnc2)P(=O)(OCC)OCC)cc(C)c1O (stereo not drawn) [Compound 55, diethyl α-(3-ethoxy-4-hydroxy-5-methylphenyl)-β-[N-(3-pyridyl)-amino]-ethylphosphonate]	155 to 156 °C	19 to 55%
CCOP(=O)(OCC)C(CNc1nc2ccccc2s1)c1cc(C)c(O)c(OC)c1 (stereo not drawn) [Compound 81, diethyl α-(4-hydroxy-3-methoxy-5-methylphenyl)-β-[N-(2-benzothiazolyl)-amino]-ethylphosphonate]	–	19 to 55%
CCOP(=O)(OCC)C(CNc1ccon1)c1cc(C)c(O)c(OC)c1 (stereo not drawn) [Compound 87, diethyl α-(4-hydroxy-3-methoxy-5-methylphenyl)-β-[N-(3-isoxazolyl)-amino]-ethylphosphonate]	–	19 to 55%
CCOP(=O)(OCC)C(CNc1cnccn1)c1cc(C)c(O)c(C)c1 (stereo not drawn) [Example 25, Diethyl α-(3,5-dimethyl-4-hydroxyphenyl)-β-[N-(pyrazinyl)-amino]-ethylphosphonate]	–	19 to 55%
CCOP(=O)(OCC)C(CNc1cnccn1)c1cc(C)c(O)c(C(C)(C)C)c1 (stereo not drawn) [Example 26, Diethyl α-(3-tert-butyl-4-hydroxy-5-methylphenyl)-β-[N-(pyrazinyl)-amino]-ethylphosphonate]	–	19 to 55%
